Measurements taken from patent US20240158418A1 (C4 Therapeutics, Inc., priority 2021, published 2024).
Where two headings read alike, the source gives them in different places.

How the values were obtained:
EGFR L858R-T790M = target: T1, EGFR L858R-T790M (Homo sapiens, UniProt P00533, L858R/T790M); assay: EGFR degradation, Total EGFR (L858R-specific) HTRF, NCI-H1975; assay type: cell-based; conditions: NCI-H1975 cells, 6 hours, Total EGFR HTRF, read-out: H1975 EGFR DC50
T1 construct: NCI-H1975 (harboring EGFR heterozygous L858R-T790M mutations); host or cells: NCI-H1975
Method in brief: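 Cells in RPMI 1640 + 10% FBS treated 6 h at 37°C with compound, 11-point half-log titration from 10 μM top, in duplicate. pY1068 and total EGFR read by HTRF (pan-EGFR antibody for wild-type A431; L858R-specific for mutants); IC50 for phospho inhibition, DC50 for 50% degradation.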

EGFR L858R = EGFR L858R (Homo sapiens, UniProt P00533, L858R); assay: EGFR degradation, Total EGFR (L858R-specific) HTRF, NCI-H3255; assay type: cell-based; set-up: NCI-H3255 (harboring EGFR heterozygous L858R mutation); host or cells: NCI-H3255; conditions: NCI-H3255 cells, 6 hours, Total EGFR HTRF, read-out: H3255 EGFR DC50
Description: NCI-H1975 (harboring EGFR heterozygous L858R-T790M mutations) and NCI-H3255 (harboring EGFR heterozygous L858R mutation) were purchased from ATCC and NCI, respectively. NCI-H1975+CS (harboring EGFR heterozygous L858R-T790M-C797S mutations) was generated using CRISPR technology to introduce the additional C797S mutation by Horizon Discovery. A431 (harboring EGFR wildtype) was purchased from ATCC. RPMI 1640 no-phenol red medium and fetal bovine serum (FBS) were purchased from Gibco (Grand Island, NY, USA). Cell culture flasks and 384-well microplates were acquired from VWR (Radnor, PA, USA). Phosphorylated (pY1068) EGFR and Total EGFR (using L858R-specific detection antibody and pan-EGFR antibody for EGFR mutant cell lines and EGFR wild-type cell lines, respectively) HTRF assay kits were purchased from Cisbio (Bedford, MA, USA).
Degradation of EGFR protein containing L858R mutation or wild-type was determined based on quantification of FRET signal using a Total EGFR (L858R-specific or pan-EGFR detecting) HTRF assay kit. Phospho-EGFR (pEGFR) inhibition was determined based on quantification of FRET signal using a pY1068 EGFR HTRF assay kit. In separate assay plates, test compounds were added to the 384-well plate from a top concentration of 10 μM with 11 points, half log titration in duplicates. For each assay, 12.5 uL of cells suspended in assay media (RPMI 1640 no-phenol red medium+10% FBS) at cell densities indicated for each cell line in Table 8 below were dispensed using a multi-channel pipette to 384-well low volume white HTRF microplates containing a duplicate concentration range of test compounds and DMSO controls. The plates were kept at 37° C. with 5% CO2 for 6 hours and then incubated with either phospho EGFR or Total EGFR HTRF detection antibodies according to the cell line and EGFR mutant being assayed. Cells treated in the absence of the test compound were the negative control. Positive control was set by wells containing all reagents but no cells. FRET signal was acquired on EnVision™ Multilabel Reader (PerkinElmer, Santa Clara, CA, USA). Compound concentration that achieves 50% degradation and inhibition was reported as DC50 and IC50, respectively.

T1 sequence (P00533 25-1210 T790M/L858R): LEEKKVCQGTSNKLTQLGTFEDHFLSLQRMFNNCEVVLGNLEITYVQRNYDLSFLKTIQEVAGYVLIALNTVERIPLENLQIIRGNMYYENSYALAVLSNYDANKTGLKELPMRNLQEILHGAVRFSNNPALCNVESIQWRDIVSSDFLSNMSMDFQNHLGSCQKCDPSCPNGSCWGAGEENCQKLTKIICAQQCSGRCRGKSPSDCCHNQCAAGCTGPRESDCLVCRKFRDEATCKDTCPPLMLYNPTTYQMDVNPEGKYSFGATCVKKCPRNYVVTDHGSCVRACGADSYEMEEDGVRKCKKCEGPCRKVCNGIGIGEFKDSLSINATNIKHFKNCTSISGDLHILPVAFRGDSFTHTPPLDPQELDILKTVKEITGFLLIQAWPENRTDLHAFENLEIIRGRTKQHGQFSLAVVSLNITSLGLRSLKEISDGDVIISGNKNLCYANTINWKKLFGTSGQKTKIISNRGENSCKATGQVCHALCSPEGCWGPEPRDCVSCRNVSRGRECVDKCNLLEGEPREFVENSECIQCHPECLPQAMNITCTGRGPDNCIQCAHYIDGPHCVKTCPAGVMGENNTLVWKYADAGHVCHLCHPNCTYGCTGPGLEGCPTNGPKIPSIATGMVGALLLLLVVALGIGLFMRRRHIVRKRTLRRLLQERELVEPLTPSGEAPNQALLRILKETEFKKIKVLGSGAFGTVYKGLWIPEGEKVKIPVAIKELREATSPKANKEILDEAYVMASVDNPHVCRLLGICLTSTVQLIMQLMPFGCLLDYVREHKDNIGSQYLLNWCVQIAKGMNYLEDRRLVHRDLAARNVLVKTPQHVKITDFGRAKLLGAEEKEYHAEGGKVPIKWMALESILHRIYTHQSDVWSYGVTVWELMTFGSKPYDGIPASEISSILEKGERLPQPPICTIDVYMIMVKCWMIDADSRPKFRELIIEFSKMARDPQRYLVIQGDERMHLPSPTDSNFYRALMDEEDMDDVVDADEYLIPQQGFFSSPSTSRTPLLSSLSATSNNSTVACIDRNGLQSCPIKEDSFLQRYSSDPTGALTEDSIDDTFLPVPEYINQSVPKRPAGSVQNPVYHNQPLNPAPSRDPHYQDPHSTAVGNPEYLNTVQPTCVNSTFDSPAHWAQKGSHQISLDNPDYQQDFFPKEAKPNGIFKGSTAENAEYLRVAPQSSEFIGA
Chain of EGFR L858R (P00533 25-1210 L858R): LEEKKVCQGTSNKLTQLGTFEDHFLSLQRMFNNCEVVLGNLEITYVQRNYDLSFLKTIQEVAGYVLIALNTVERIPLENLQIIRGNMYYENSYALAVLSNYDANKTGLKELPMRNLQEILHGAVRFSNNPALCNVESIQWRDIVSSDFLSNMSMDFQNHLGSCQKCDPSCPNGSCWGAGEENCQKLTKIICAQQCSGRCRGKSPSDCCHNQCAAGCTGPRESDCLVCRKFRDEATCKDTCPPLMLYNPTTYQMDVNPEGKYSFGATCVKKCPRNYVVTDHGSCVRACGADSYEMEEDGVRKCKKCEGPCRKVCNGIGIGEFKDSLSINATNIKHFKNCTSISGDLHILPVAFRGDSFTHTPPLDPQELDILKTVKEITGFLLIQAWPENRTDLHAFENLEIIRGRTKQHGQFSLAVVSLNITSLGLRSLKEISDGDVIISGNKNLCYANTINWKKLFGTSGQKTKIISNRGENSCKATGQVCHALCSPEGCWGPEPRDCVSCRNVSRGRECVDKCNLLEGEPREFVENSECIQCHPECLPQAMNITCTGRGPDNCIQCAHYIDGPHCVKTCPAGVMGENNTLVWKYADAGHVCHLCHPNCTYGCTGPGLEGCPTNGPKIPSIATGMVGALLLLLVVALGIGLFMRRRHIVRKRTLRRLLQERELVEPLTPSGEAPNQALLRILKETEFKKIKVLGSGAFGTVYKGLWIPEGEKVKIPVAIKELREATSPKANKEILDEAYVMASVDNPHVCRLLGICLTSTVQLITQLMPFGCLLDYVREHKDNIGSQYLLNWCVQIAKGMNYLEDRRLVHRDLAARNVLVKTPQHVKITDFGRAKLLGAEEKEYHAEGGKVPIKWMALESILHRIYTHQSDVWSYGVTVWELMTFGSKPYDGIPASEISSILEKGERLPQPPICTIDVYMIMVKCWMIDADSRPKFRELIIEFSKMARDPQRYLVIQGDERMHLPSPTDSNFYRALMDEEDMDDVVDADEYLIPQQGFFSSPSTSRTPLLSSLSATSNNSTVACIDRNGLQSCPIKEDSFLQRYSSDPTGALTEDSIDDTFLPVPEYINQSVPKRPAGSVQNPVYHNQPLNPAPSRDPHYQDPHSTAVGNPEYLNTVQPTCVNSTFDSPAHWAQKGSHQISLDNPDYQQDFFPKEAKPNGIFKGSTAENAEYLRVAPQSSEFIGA

DC50 (EGFR L858R-T790M; Table 9B) [nM] | DC50 (EGFR L858R; Table 9B) [nM] | DC50 (EGFR L858R-T790M; Table 9A) [nM] | DC50 (EGFR L858R; Table 9A) [nM] | Compound
< 50 | < 50 | – | – | O=C1CCC(Nc2ccc(N3CCC(O)(CC(=O)N4CCN(c5ccc(-c6cc(F)c7c(c6)C(=O)N(C(C(=O)Nc6nccs6)c6ncn8c6CCC8)C7)cc5)CC4)CC3)c(F)c2)C(=O)N1 (centres unmarked) [Compound 83, 2-(6,7-dihydro-5H-pyrrolo[1,2-c]imidazol-1-yl)-2-[6-[4-[4-[2-[1-[4-[(2,6-dioxo-3-piperidyl)amino]-2-fluoro-phenyl]-4-hydroxy-4-piperidyl]acetyl]piperazin-1-yl]phenyl]-4-fluoro-1-oxo-isoindolin-2-yl]-N-thiazol-2-yl-acetamide]
50 to 150 | < 50 | – | – | Cn1nc(N2CCC(=O)NC2=O)c2ccc(C3CCN(C(=O)CN4CCC(c5ccc(-c6cc(F)c7c(c6)C(=O)N(C(C(=O)Nc6nccs6)c6ncn8c6CCC8)C7)cc5)CC4)CC3)cc21 (centres unmarked) [Compound 85, 2-(6,7-dihydro-5H-pyrrolo[1,2-c]imidazol-1-yl)-2-[6-[4-[1-[2-[4-[3-(2,4-dioxohexahydropyrimidin-1-yl)-1-methyl-indazol-6-yl]-1-piperidyl]-2-oxo-ethyl]-4-piperidyl]phenyl]-4-fluoro-1-oxo-isoindolin-2-yl]-N-thiazol-2-yl-acetamide]
< 50 | < 50 | – | – | O=C1CCC(Nc2ccc(C3CCN(CC(=O)N4CCN(c5ccc(-c6cc(F)c7c(c6)C(=O)N(C(C(=O)Nc6nccs6)c6ncn8c6CCC8)C7)cc5)CC4)CC3)nc2)C(=O)N1 (centres unmarked) [Compound 179, 2-(6,7-dihydro-5H-pyrrolo[1,2-c]imidazol-1-yl)-2-[6-[4-[4-[2-[4-[5-[(2,6-dioxo-3-piperidyl)amino]-2-pyridyl]-1-piperidyl]acetyl]piperazin-1-yl]phenyl]-4-fluoro-1-oxo-isoindolin-2-yl]-N-thiazol-2-yl-acetamide]
– | – | < 50 | < 50 | Cn1nc(N2CCC(=O)NC2=O)c2ccc(C3CCN(CC(=O)N4CC5(C4)CN(c4ccc(-c6cc(F)c7c(c6)C(=O)N(C(C(=O)Nc6nccs6)c6ncn8c6CCC8)C7)cc4)C5)CC3)cc21 (centres unmarked) [Compound 49, 2-(6,7-dihydro-5H-pyrrolo[1,2-c]imidazol-1-yl)-2-[6-[4-[2-[2-[4-[3-(2,4-dioxohexahydropyrimidin-1-yl)-1-methyl-indazol-6-yl]-1-piperidyl]acetyl]-2,6-diazaspiro[3.3]heptan-6-yl]phenyl]-4-fluoro-1-oxo-isoindolin-2-yl]-N-thiazol-2-yl-acetamide]
– | – | < 50 | < 50 | Cn1nc(N2CCC(=O)NC2=O)c2ccc(C3CCN(CC(=O)N4CCN(c5ccc(-c6cc(F)c7c(c6)C(=O)N(C(C(=O)Nc6nccs6)c6ncn8c6C[C@@H](F)C8)C7)cc5)CC4)CC3)cc21 (stereo partly drawn) [Compound 45, 2-[6-[4-[4-[2-[4-[3-(2,4-dioxohexahydropyrimidin-1-yl)-1-methyl-indazol-6-yl]-1-piperidyl]acetyl]piperazin-1-yl]phenyl]-4-fluoro-1-oxo-isoindolin-2-yl]-2-[(6R)-6-fluoro-6,7-dihydro-5H-pyrrolo[1,2-c]imidazol-1-yl]-N-thiazol-2-yl-acetamide]
< 50 | < 50 | – | – | O=C1CC[C@@H](Nc2ccc(C3CCN(C(=O)CCCN4CCN(c5ccc(-c6cc(F)c7c(c6)C(=O)N(C(C(=O)Nc6nccs6)c6ncn8c6CCC8)C7)cc5)CC4)CC3)cc2)C(=O)N1 (stereo in doubt) [Compound 176, 2-(6,7-dihydro-5H-pyrrolo[1,2-c]imidazol-1-yl)-2-(6-(4-(4-(4-(4-(4-((2,6-dioxopiperidin-3-yl)amino)phenyl)piperidin-1-yl)-4-oxobutyl)piperazin-1-yl)phenyl)-4-fluoro-1-oxoisoindolin-2-yl)-N-(thiazol-2-yl)acetamide]
< 50 | < 50 | – | – | O=C1CCC(Nc2ccc(C3CCN(CC(=O)N4CCN(c5ccc(-c6cc(F)c7c(c6)C(=O)N(C(C(=O)Nc6nccs6)c6ncn8c6CCC8)C7)cc5)CC4)CC3)c(F)c2)C(=O)N1 (centres unmarked) [Compound 180, 2-(6,7-dihydro-5H-pyrrolo[1,2-c]imidazol-1-yl)-2-[6-[4-[4-[2-[4-[4-[(2,6-dioxo-3-piperidyl)amino]-2-fluoro-phenyl]-1-piperidyl]acetyl]piperazin-1-yl]phenyl]-4-fluoro-1-oxo-isoindolin-2-yl]-N-thiazol-2-yl-acetamide]
< 50 | < 50 | – | – | O=C1CCC(Nc2ccc(C3CCC(CC(=O)N4CCN(c5ccc(-c6cc(F)c7c(c6)C(=O)N(C(C(=O)Nc6nccs6)c6ncn8c6CCC8)C7)cc5)CC4)CC3)cc2)C(=O)N1 (centres unmarked) [Compound 177, 2-(6,7-dihydro-5H-pyrrolo[1,2-c]imidazol-1-yl)-2-(6-(4-(4-(2-(4-(4-((2,6-dioxopiperidin-3-yl)amino)phenyl)cyclohexyl)acetyl)piperazin-1-yl)phenyl)-4-fluoro-1-oxoisoindolin-2-yl)-N-(thiazol-2-yl)acetamide]
– | – | < 50 | < 50 | O=C1CCC(Nc2ccc(C3CCN(CC(=O)N4CCN(c5ccc(-c6cc(F)c7cn(C(C(=O)Nc8nccs8)c8ncn9c8CCC9)nc7c6)cn5)CC4)CC3)nc2)C(=O)N1 (centres unmarked) [Compound 66, 2-(6,7-dihydro-5H-pyrrolo[1,2-c]imidazol-1-yl)-2-[6-[6-[4-[2-[4-[5-[(2,6-dioxo-3-piperidyl)amino]-2-pyridyl]-1-piperidyl]acetyl]piperazin-1-yl]-3-pyridyl]-4-fluoro-indazol-2-yl]-N-thiazol-2-yl-acetamide]
< 50 | < 50 | – | – | O=C1CCC(Nc2ccc(N3CCC(O)(CC(=O)N4CC5(C4)CN(c4ccc(-c6cc(F)c7c(c6)C(=O)N(C(C(=O)Nc6nccs6)c6ncn8c6CCC8)C7)cc4)C5)CC3)c(C(F)F)c2)C(=O)N1 (centres unmarked) [Compound 104, 2-(6-(4-(6-(2-(1-(2-(difluoromethyl)-4-((2,6-dioxopiperidin-3-yl)amino)phenyl)-4-hydroxypiperidin-4-yl)acetyl)-2,6-diazaspiro[3.3]heptan-2-yl)phenyl)-4-fluoro-1-oxoisoindolin-2-yl)-2-(6,7-dihydro-5H-pyrrolo[1,2-c]imidazol-1-yl)-N-(thiazol-2-yl)acetamide]
– | – | < 50 | < 50 | O=C1CC[C@H](Nc2ccc(C3CCN(CC(=O)N4CCC(n5cc(-c6cc(F)c7c(c6)C(=O)N(C(C(=O)Nc6nccs6)c6ncn8c6CCC8)C7)nn5)CC4)CC3)cc2)C(=O)N1 (stereo partly drawn) [Compound 30, 2-(6,7-Dihydro-5H-pyrrolo[1,2-c]imidazol-1-yl)-2-(6-(1-(1-(2-(4-(4-(((S)-2,6-dioxopiperidin-3-yl)amino)phenyl)piperidin-1-yl)acetyl)piperidin-4-yl)-1H-1,2,3-triazol-4-yl)-4-fluoro-1-oxoisoindolin-2-yl)-N-(thiazol-2-yl)acetamide]
50 to 150 | < 50 | – | – | O=C1CC[C@H](Nc2ccc(C3CCN(CC(=O)N4C[C@H]5C[C@@H]4CN5c4ccc(-c5cc(F)c6c(c5)C(=O)N(C(C(=O)Nc5nccs5)c5ncn7c5CCC7)C6)cc4)CC3)c(F)c2)C(=O)N1 (stereo partly drawn) [Compound 80, 2-(6,7-dihydro-5H-pyrrolo[1,2-c]imidazol-1-yl)-2-(6-(4-((1R,4R)-5-(2-(4-(4-(((S)-2,6-dioxopiperidin-3-yl)amino)-2-fluorophenyl)piperidin-1-yl)acetyl)-2,5-diazabicyclo[2.2.1]heptan-2-yl)phenyl)-4-fluoro-1-oxoisoindolin-2-yl)-N-(thiazol-2-yl)acetamide]
< 50 | < 50 | – | – | Cn1nc(N2CCC(=O)NC2=O)c2ccc(C3CCN(C(=O)CN4CC5(C4)CN(c4ccc(-c6ccc7cn(C(C(=O)Nc8nccs8)c8ncn9c8CCC9)nc7c6F)cn4)C5)CC3(F)F)cc21 (centres unmarked) [Compound 73, 2-(6,7-dihydro-5H-pyrrolo[1,2-c]imidazol-1-yl)-2-(6-(6-(6-(2-(4-(3-(2,4-dioxotetrahydropyrimidin-1(2H)-yl)-1-methyl-1H-indazol-6-yl)-3,3-difluoropiperidin-1-yl)-2-oxoethyl)-2,6-diazaspiro[3.3]heptan-2-yl)pyridin-3-yl)-7-fluoro-2H-indazol-2-yl)-N-(thiazol-2-yl)acetamide]
